Measured values taken from paper PMC9501232, “Novel 4-Azapregnene Derivatives as Potential Anticancer Agents: Synthesis, Antiproliferative Activity and Molecular Docking Studies” (Molecules, 2022).

Legend:
T47-D cells [1] = experiment: MTT cell proliferation assay, T47-D; type: cell-based, human; conditions: 72 h; for MTT screening, cell proliferation: 30 µM, average ± SD; for IC50: Homo sapiens, T47D, MTT
Description: (§1) Cell lines, namely LNCaP, PC-3, T47-D and NHDF were obtained from American Type Culture Collection (ATCC; Manassas, VA, USA) and cultured in 75 cm^2 culture flasks at 37 °C in a humidified air incubator with 5% CO2. LNCaP, PC-3 and T47-D cells, which were used in passages 20th to 27th, 25th to 29th and 10th to 15th, respectively, were cultured in RPMI 1640 medium (Sigma-Aldrich, Inc., St. Louis, MO, USA) with 10% fetal bovine serum (FBS; Sigma-Aldrich, Inc. St. Louis, MO, USA) and 1% of the antibiotic mixture of 10,000 IU/mL penicillin G and […] of streptomycin (Sp, Sigma-Aldrich, Inc. St. Louis, MO, USA). Finally, NHDF cells (Normal Human Dermal Fibroblasts) were cultured in RPMI 1640 medium supplemented with 10% FBS, 2 mM L-glutamine, 10 mM HEPES, 1 mM sodium pyruvate and 1% of an antibiotic/antimycotic mixture (10,000 U/mL penicillin G, 100 mg/mL streptomycin and 25 µg/mL amphotericin B) (Ab; Sigma-Aldrich, Inc. St. Louis, MO, USA), and these cells were used in passages 10 to 12. For all cell types, the medium was renewed every 2–3 days until cells reach nearly the confluence state. Then, they were detached gently by trypsinization (trypsin-EDTA solution: 0.125 g/L of trypsin and 0.02 g/L of EDTA).
(§2) All the stock solutions were prepared by dissolving compounds in dimethyl sulfoxide (DMSO; Sigma-Aldrich, Inc., St. Louis, MO, USA) at 10 mM and stored at 4 °C. From these solutions, the several diluted compounds solutions in different concentrations were freshly prepared in a complete culture medium before each experiment.
(§3) As previously referred, cells were trypsinized after reaching a near confluence state and counted by the trypan blue exclusion assay in a Neubauer chamber. Then, 100 µL of cell suspension/well with an initial density of 2 × 10^4 cells/mL were seeded in 96-well culture plates (Nunc, Apogent, Denmark) and left to adhere for 48 h. After cells adherence, the medium was replaced by the distinct solutions of the compounds in the study (30 µM for preliminary studies and 0.01, 0.1, 1, 10, 50 and 100 µM for concentration–response studies) in the appropriate medium for approximately 72 h. 5-FU and finasteride were used as positive controls and untreated cells were used as the negative control. Each experiment was performed in quadruplicate and independently performed at least two times. The in vitro antiproliferative effects were evaluated by the MTT assay (Sigma-Aldrich, Inc. St. Louis, USA). After the incubation period, the medium was removed and 100 µL of phosphate buffer saline (NaCl 137 mM, KCl 2.7 mM, Na2HPO4 10 mM and KH2PO4 1.8 mM in deionized water and pH adjusted to 7.4) were used to wash the cells. Then, 100 µL of the MTT solution (5 mg/mL) was prepared in the appropriate serum-free medium and was added to each well, followed by incubation for 4 h at 37 °C. Hereafter, the MTT containing medium was removed and the formazan crystals were dissolved in DMSO. Then the absorbance was measured at 570 nm using a microplate spectrophotometer BIO-RAD xMarkTM. Cell viability values were expressed as percentages relative to the absorbance determined in the cells used as negative controls.
(§4) The data are expressed as a mean ± standard deviation (SD) and differences between groups were considered statistically significant when p < 0.05. The IC50 values were determined through sigmoidal fitting analysis with variable slope and considering a 95% confidence level. All data shown are representative of at least two independent experiments.

LNCaP cells = experiment: MTT cell proliferation assay, LNCaP; type: cell-based, human; conditions: 72 h; for MTT screening, cell proliferation: 30 µM, average ± SD; for IC50: Homo sapiens, MTT
Description: as §1, §2, §3, §4

PC-3 cells = experiment: MTT cell proliferation assay, PC-3; type: cell-based, human; conditions: for MTT screening, cell proliferation: PC-3, 30 µM, 72 h, average ± SD; for IC50: Homo sapiens, PC-3, 72 h, MTT
Description: as §1, §2, §3, §4

[2] = test system: NHDF cells (Normal Human Dermal Fibroblasts); experiment: MTT cell proliferation assay, NHDF; type: cell-based; conditions: 72 h; for MTT screening, cell proliferation: 30 µM, average ± SD; for IC50: Homo sapiens, MTT
Description: as §1, §2, §3, §4

T47-D cells [3] = experiment: Cell nuclear morphology and distribution analysis with ImageJ; type: cell-based, human; conditions: 20 µM, 48 and 72 h
Description: The nuclear measurements were achieved by converting 16-bit photomicrographs of Hoechst 3342-stained nuclei, in different conditions, into 8-bit images and then these images were autothresholded to binary photos using the default method “Make binary” function of ImageJ v 1.49. Cell nuclei that are touching were separated and fragments were discarded based on the area through the “Analyze Particle” function. This function also provides several information pretended as nuclear area, circumference and form factor [33]. In addition, the “Nearest Neighbor Distance” was determined. This function allows measuring the distance between each cell nucleus and the nearest ones.

[4] = test system: caspase-9 activity in T47-D cells; experiment: Caspase-Glo 9 caspase-9 activity assay; type: cell-based, human; conditions: 48 h, DOX 10 µM, 3g 10 and 20 µM, relative to untreated cells
Description: Promega Caspase-Glo 9 assay (Promega, Madison, WI, USA) was employed to evaluate the caspase-9 activity. T47-D cells were seeded in a 96 multiwell plate at a density of 4 × 10^4 cells/mL. After 48 h, cells were treated with the positive control, DOX, at 10 μM and with 10 and 20 μM of 3g, during 48 h. The assay was performed at the end of treatment, following the instructions provided by the manufacturer. Data are representative of at least two experiments (n = 4 in each).

| Compound | MTT screening, cell proliferation (T47-D cells [1]) | MTT screening, cell proliferation (LNCaP cells) | MTT screening, cell proliferation (PC-3 cells) | MTT screening, cell proliferation [2] | IC50 (T47-D cells [1]) [µM] | IC50 (LNCaP cells) [µM] | IC50 (PC-3 cells) [µM] | IC50 [2] [µM] | Nearest neighbor distance (NND) of cell nuclei (T47-D cells [3]) | melting point [°C] | Caspase-9 activity [4] |
| --- | --- | --- | --- | --- | --- | --- | --- | --- | --- | --- | --- |
| CC(=O)[C@H]1CC[C@H]2[C@@H]3CCC4=CC(=O)CC[C@]4(C)[C@H]3CC[C@]12C [Progesterone, reference compound] | 62.9 ± 6.8 percentage of negative control | 64.3 ± 16.1 percentage of negative control | 42.9 ± 5.4 percentage of negative control | 96.6 ± 14.3 percentage of negative control | – | – | – | – | – | – | – |
| O=c1[nH]cc(F)c(=O)[nH]1 [Compound 5-FU, 5-fluorouracil, reference compound] | 42.3 ± 6.4 percentage of negative control | 18.6 ± 2.6 percentage of negative control | 10.8 ± 3.1 percentage of negative control | 33.6 ± 8.2 percentage of negative control | 0.7 | 1.5 | 3.3 | 29.4 | different distances | – | – |
| Cc1ccc(/C=C/C(=O)[C@H]2CC[C@H]3[C@@H]4CC=C5NC(=O)CC[C@]5(C)[C@H]4CC[C@]23C)o1 [Compound 3f, 21E-[(5-Methylfuran-2-yl)methylidene]-4-azapregn-5-ene-3,20-dione] | 104.3 ± 11.3 percentage of negative control | 88.9 ± 17.7 percentage of negative control | 108.1 ± 7.8 percentage of negative control | 89.7 ± 9.7 percentage of negative control | – | – | – | – | – | 200 to 203 | – |
| COc1cccc2c1C(=O)c1c(O)c3c(c(O)c1C2=O)C[C@@](O)(C(=O)CO)C[C@@H]3O[C@H]1C[C@H](N)[C@H](O)[C@H](C)O1 [DOX, doxorubicin, reference compound] | – | – | – | – | – | – | – | – | – | – | significant elevation in caspase-9 activity |
| C[C@]12CC[C@H]3[C@@H](CC=C4NC(=O)CC[C@@]43C)[C@@H]1CC[C@@H]2C(=O)/C=C/c1ccc([N+](=O)[O-])cc1 [Compound 3c, 21E-[(4-Nitrophenyl)methylidene]-4-azapregn-5-ene-3,20-dione] | 6.7 ± 4.6 percentage of negative control | 5.2 ± 2.6 percentage of negative control | 0.7 ± 0.5 percentage of negative control | 20.3 ± 2.8 percentage of negative control | 6.56 | 16.3 | 3.29 | 6.94 | – | – | – |
| C[C@]12CC[C@H]3[C@@H](CC=C4NC(=O)CC[C@@]43C)[C@@H]1CC[C@@H]2C(=O)/C=C/c1ccccc1 [Compound 3a, 21E-(Phenylmethylidene)-4-azapregn-5-ene-3,20-dione] | 6.5 ± 5.4 percentage of negative control | 6.5 ± 5.3 percentage of negative control | 1.4 ± 1.0 percentage of negative control | 25.1 ± 7.4 percentage of negative control | 16.9 | 27.5 | 12.6 | 64 | – | – | – |
| 4-Azapregn-4-ene-3,20-dione [Compound 2] | 137.0 ± 18.0 percentage of negative control | 58.3 ± 13.6 percentage of negative control | 96.7 ± 9.3 percentage of negative control | 106.1 ± 6.0 percentage of negative control | – | – | – | – | – | – | – |
| COc1ccc(/C=C/C(=O)[C@H]2CC[C@H]3[C@@H]4CC=C5NC(=O)CC[C@]5(C)[C@H]4CC[C@]23C)cc1 [Compound 3d, 21E-[(4-Methoxyphenyl)methylidene]-4-azapregn-5-ene-3,20-dione] | 73.9 ± 14.6 percentage of negative control | 88.0 ± 15.5 percentage of negative control | 58.2 ± 6.0 percentage of negative control | 52.4 ± 2.8 percentage of negative control | – | – | – | – | – | 280 to 282 | – |
| C[C@]12CC[C@H]3[C@@H](CC=C4NC(=O)CC[C@@]43C)[C@@H]1CC[C@@H]2C(=O)/C=C/c1ccco1 [Compound 3e, 21E-[(Furan-2-yl)methylidene]-4-azapregn-5-ene-3,20-dione] | 92.6 ± 7.4 percentage of negative control | 85.3 ± 6.7 percentage of negative control | 82.7 ± 6.5 percentage of negative control | 111.6 ± 13.9 percentage of negative control | – | – | – | – | – | 260 to 261 | – |
| Cc1ccc(/C=C/C(=O)[C@H]2CC[C@H]3[C@@H]4CC=C5NC(=O)CC[C@]5(C)[C@H]4CC[C@]23C)cc1 [Compound 3b, 21E-[(4-Methylphenyl)methylidene]-4-azapregn-5-ene-3,20-dione] | 45.0 ± 11.6 percentage of negative control | 62.7 ± 9.0 percentage of negative control | 25.9 ± 3.8 percentage of negative control | 83.0 ± 3.6 percentage of negative control | 45 | – | 25.9 | – | – | 191 to 193 | – |
| C[C@]12CCC(=O)C[C@@H]1CC[C@@H]1[C@@H]2CC[C@]2(C)[C@@H](O)CC[C@@H]12 [DHT, 5α-dihydrotestosterone, reference compound] | 90.7 ± 9.4 percentage of negative control | 138.9 ± 3.9 percentage of negative control | 93.1 ± 4.9 percentage of negative control | 100.5 ± 7.4 percentage of negative control | – | – | – | – | – | – | – |
| C[C@]12CC[C@H]3[C@@H](CCC4=CC(=O)CC[C@@]43C)[C@@H]1CC[C@@H]2O [Testosterone, reference compound] | 72.0 ± 4.0 percentage of negative control | 99.2 ± 4.2 percentage of negative control | 89.5 ± 9.0 percentage of negative control | 94.2 ± 7.3 percentage of negative control | – | – | – | – | – | – | – |
| CC(=O)[C@H]1CCC2C3CCC(=O)[C@](C)(CCC(=O)O)C3CC[C@@]21C (stereo partly drawn) [Compound 1] | 130.8 ± 20.8 percentage of negative control | 96.4 ± 16.1 percentage of negative control | 102.1 ± 5.2 percentage of negative control | 100.0 ± 6.0 percentage of negative control | – | – | – | – | – | 168 to 169 | – |
